Source: patent US6806230B1, “Pyrimidine derivatives and herbicides containing them” (Kumiai Chemical Industry Co., Ltd., priority 1999, dated 2004)

Tests used:
Assay type in all cases: in vivo
[1] = test system: barnyard grass (Eo); assay: Test Example 1: herbicidal effects by flooded paddy field treatment; set-up: herbicidal effects, Eo (barnyard grass):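 0-5 growth inhibition grade; 5 = over 90%; 4 = 70-90%; 3 = 50-70%; 2 = 30-50%; 1 = 10-30%; 0 = under 10%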; conditions: for herbicidal effects, Eo (barnyard grass): dose 100 g active ingredient per 10 ares, examined on the 21st day after treatment, standards of Table 44; for Herbicidal effect index, Eo: dose 100 gai/10a, examined on 21st day after treatment, index 0-5 per Table 44;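 on Herbicidal effect index, Eo: 0-5 growth inhibition grade; 5 = over 90%; 4 = 70-90%; 3 = 50-70%; 2 = 30-50%; 1 = 10-30%; 0 = under 10%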
Experimental: (§1) In a 100 cm^2 plastic pot, paddy field soil was filled and paddled. Then, seeds of barnyard grass (Eo) and monochoria (Mo) were sown, and water was introduced to a depth of 3 cm. Next day, a wettable powder prepared in accordance with Formulation Example 1 was diluted with water and dropwise applied to the water surface. The dose was 100 g of the active ingredient per 10 ares. Thereafter, cultivation was carried out in a green house, and on the 21st day after the treatment, the herbicidal effects were examined in accordance with the standards as identified in Table 44.

[2] = test system: barnyard grass (Ec); assay: Test Example 2: herbicidal effects by upland soil treatment; set-up: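 0-5 growth inhibition grade; 5 = over 90%; 4 = 70-90%; 3 = 50-70%; 2 = 30-50%; 1 = 10-30%; 0 = under 10%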; conditions: dose 100 g active ingredient per 10 ares, examined on the 21st day after treatment
Experimental: In a 80 cm^2 plastic pot, upland soil was filled, and seeds of barnyard grass (Ec) and green foxtail (Se) were sown and covered with soil. A wettable powder prepared in accordance with Formulation Example 1 was diluted with water and uniformly applied to the soil surface by means of a small size spray at a rate of 100 l per 10 ares, so that the dose of the active ingredient would be 100 g per 10 ares. Thereafter, cultivation was carried out in a green house, and on the 21st day after the treatment, the herbicidal effects were examined in accordance with the standards as identified in Table 44.

[3] = test system: monochoria (Mo); assay: Test Example 4: selectivity for a crop plant by flooded paddy field treatment; set-up: scale not given here; conditions: for Mo (herbicidal effect index): monochoria, dose 25 gai/10a, 21st day after treatment, index per Table 44; for Mo (herbicidal effects, index): dose 25 g active ingredient per 10 ares, examined on the 21st day after treatment
Experimental: as §1, with “pot, a” for “pot,”, “sown, and rice (Or) of second leaf stage was transplanted,” for “sown,”, “was 25” for “was 100”, “standards of” for “standards as identified in”

[4] = test system: rice (Or); assay: as above; set-up: scale not given here; conditions: rice transplanted at second leaf stage; for Or (herbicidal effect index on crop): dose 25 gai/10a, 21st day after treatment, index per Table 44; for Or (effect on crop plant rice, index): dose 25 g active ingredient per 10 ares, examined on the 21st day after treatment
Experimental: as §1, with “pot, a” for “pot,”, “sown, and rice (Or) of second leaf stage was transplanted,” for “sown,”, “was 25” for “was 100”, “standards of” for “standards as identified in”

[5] = test system: barnyard grass (Eo); assay: as above; set-up: scale not given here; conditions: for Eo (herbicidal effect index): barnyard grass, dose 25 gai/10a, 21st day after treatment, index per Table 44; for Eo (herbicidal effects, index): dose 25 g active ingredient per 10 ares, examined on the 21st day after treatment
Experimental: as §1, with “pot, a” for “pot,”, “sown, and rice (Or) of second leaf stage was transplanted,” for “sown,”, “was 25” for “was 100”, “standards of” for “standards as identified in”

[6] = test system: monochoria (Mo); assay: Test Example 1: herbicidal effects by flooded paddy field treatment; set-up: herbicidal effects, Mo (monochoria):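 0-5 growth inhibition grade; 5 = over 90%; 4 = 70-90%; 3 = 50-70%; 2 = 30-50%; 1 = 10-30%; 0 = under 10%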; conditions: for herbicidal effects, Mo (monochoria): dose 100 g active ingredient per 10 ares, examined on the 21st day after treatment, standards of Table 44; for Herbicidal effect index, Mo: dose 100 gai/10a, examined on 21st day after treatment, index 0-5 per Table 44;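 on Herbicidal effect index, Mo: 0-5 growth inhibition grade; 5 = over 90%; 4 = 70-90%; 3 = 50-70%; 2 = 30-50%; 1 = 10-30%; 0 = under 10%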
Experimental: as §1

Structure (SMILES) | herbicidal effects, Eo (barnyard grass) [1] | Ec (herbicidal effects, index) [2] | Mo (herbicidal effect index) [3] | Or (herbicidal effect index on crop) [4] | Eo (herbicidal effect index) [5] | herbicidal effects, Mo (monochoria) [6] | Herbicidal effect index, Eo [1] | Mo (herbicidal effects, index) [3] | Or (effect on crop plant rice, index) [4] | Eo (herbicidal effects, index) [5] | Herbicidal effect index, Mo [6]
CC(C)C(c1cncnc1C(F)(F)F)N(C)C(=O)Cc1cc(F)cc(F)c1F (racemic) [1-444] | 5 | 5 | 5 | 1 | 5 | 5 | – | – | – | – | –
C#CCN(C(=O)Cc1ccccc1)C(c1cncnc1CC)C(C)(C)C (racemic) [1-626] | 5 | 5 | 5 | 1 | 5 | 5 | – | – | – | – | –
C#CCN(C(=O)Cc1ccsc1)C(c1cncnc1C(F)(F)F)C(C)C (racemic) [2-78] | 5 | 5 | 5 | 1 | 5 | 5 | – | – | – | – | –
CON=CC(c1cncnc1C(C)C)N(C)C(=O)Cc1ccc(C)cc1 (racemic) [1-465] | 5 | 5 | 5 | 0 | 5 | 5 | – | – | – | – | –
Cc1ccc(CC(=O)N(C)C(c2cncnc2-c2ccccc2)C(C)C)cc1 (racemic) [1-325] | 5 | – | 5 | 1 | 5 | 5 | – | – | – | – | –
C#CCN(C(=O)Cc1ccc(Cl)s1)C(c1cncnc1CC)C(C)C (racemic) [2-73] | 5 | 5 | 5 | 1 | 5 | 5 | – | – | – | – | –
CC(C)C(c1cncnc1C(F)(F)F)N(C)C(=O)Cc1ccc(C(C)(C)C)cc1 (racemic) [Compound 1-43] | – | – | – | – | – | – | 5 | 5 | 1 | 5 | 5
Cc1ccc(CC(=O)N(C)C(c2cncnc2C(F)(F)Cl)C2CC2)cc1 (racemic) [Compound 1-93] | – | – | – | – | – | – | 5 | 5 | 0 | 5 | 5
CC(C)C(c1cncnc1-c1ccccc1)N(C)C(=O)Cc1ccc(Cl)cc1 (racemic) [1-324] | 5 | – | 5 | 1 | 5 | 5 | – | – | – | – | –
CN(C(=O)Cc1ccc(Cl)s1)C(c1cncnc1C(F)(F)F)C(C)(C)C (racemic) [2-42] | 5 | – | 5 | 0 | 5 | 5 | – | – | – | – | –
Cc1ccc(C(C)(C)C(=O)N(C)C(c2cncnc2C(F)(F)F)C(C)C)cc1 (racemic) [1-175] | 5 | – | 5 | 0 | 5 | 5 | – | – | – | – | –
Cc1ccc(CC(=O)N(C2CC2)C(c2cncnc2C(F)(F)F)C(C)C)cc1 (racemic) [Compound 1-82] | – | – | – | – | – | – | 5 | 5 | 0 | 5 | 5
CC(C)C(c1cncnc1C(F)(F)F)N(C)C(=O)COc1nc2ccccc2s1 (racemic) [2-48] | 5 | – | 5 | 1 | 5 | 5 | – | – | – | – | –
CC(C)C(c1cncnc1C(F)(F)F)N(C)C(=O)COc1ccccc1Cl (racemic) [Compound 1-132] | 5 | – | 5 | 0 | 5 | 5 | – | – | – | – | –
